Results as given in paper PMC12373846, “Hemoglobin as a pseudoperoxidase and drug target for oxidative stress-related diseases” (Signal Transduction and Targeted Therapy, 2025).

What was measured:
LKB1 = molecular target: T1, LKB1 (Homo sapiens, UniProt Q15831); test: KINOMEscan; assay type: binding; details: 10000 nM; read-out: Percent Control
T1 construct: purchased DiscoverX KINOMEscan scanEDGE; Eurofins Cerep SafetyScreen87
Outline: (§1)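 Site-directed competition binding (scanEDGE) was applied to kinase targets, while the Delta SafetyScreen87 screen addressed the remaining off-targets.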

[1] = molecular target: T2, JAK2(JH1domain-catalytic) (Homo sapiens, UniProt O60674); test: KINOMEscan; assay type: binding; details: 10000 nM; read-out: Percent Control
T2 construct: JAK2(JH1domain-catalytic); purchased DiscoverX KINOMEscan scanEDGE; Eurofins Cerep SafetyScreen87
T2 sequence (O60674 840-1132 limits assumed): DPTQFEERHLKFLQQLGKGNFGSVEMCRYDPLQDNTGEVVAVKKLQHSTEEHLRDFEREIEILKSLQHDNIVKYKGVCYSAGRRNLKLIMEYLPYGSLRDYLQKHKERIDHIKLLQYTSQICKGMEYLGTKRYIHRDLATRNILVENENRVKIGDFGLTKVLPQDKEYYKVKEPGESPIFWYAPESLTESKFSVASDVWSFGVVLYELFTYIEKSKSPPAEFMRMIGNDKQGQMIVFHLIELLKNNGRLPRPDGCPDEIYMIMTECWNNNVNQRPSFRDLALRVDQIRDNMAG
Outline: as §1

MKNK2 = molecular target: T3, MKNK2 (Homo sapiens, UniProt Q9HBH9); test: KINOMEscan; assay type: binding; details: 10000 nM; read-out: Percent Control
T3 construct: purchased DiscoverX KINOMEscan scanEDGE; Eurofins Cerep SafetyScreen87
T3 sequence (Q9HBH9 whole entry): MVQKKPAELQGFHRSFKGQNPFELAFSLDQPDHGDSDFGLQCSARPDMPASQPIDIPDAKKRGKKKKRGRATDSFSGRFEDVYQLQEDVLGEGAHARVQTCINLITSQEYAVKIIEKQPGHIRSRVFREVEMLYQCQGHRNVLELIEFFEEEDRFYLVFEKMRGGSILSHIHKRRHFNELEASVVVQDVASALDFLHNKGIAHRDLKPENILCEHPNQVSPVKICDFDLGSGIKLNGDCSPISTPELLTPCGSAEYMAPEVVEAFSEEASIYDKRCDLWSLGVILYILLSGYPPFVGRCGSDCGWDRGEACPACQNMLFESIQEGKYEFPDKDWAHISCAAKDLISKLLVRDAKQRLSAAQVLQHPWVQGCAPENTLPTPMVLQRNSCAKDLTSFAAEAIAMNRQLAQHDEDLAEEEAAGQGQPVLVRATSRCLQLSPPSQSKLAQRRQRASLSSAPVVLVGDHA
Outline: as §1

CDK3 = molecular target: T4, CDK3 (Homo sapiens, UniProt Q00526); test: KINOMEscan; assay type: binding; details: 10000 nM; read-out: Percent Control
T4 construct: purchased DiscoverX KINOMEscan scanEDGE; Eurofins Cerep SafetyScreen87
T4 sequence (Q00526 whole entry): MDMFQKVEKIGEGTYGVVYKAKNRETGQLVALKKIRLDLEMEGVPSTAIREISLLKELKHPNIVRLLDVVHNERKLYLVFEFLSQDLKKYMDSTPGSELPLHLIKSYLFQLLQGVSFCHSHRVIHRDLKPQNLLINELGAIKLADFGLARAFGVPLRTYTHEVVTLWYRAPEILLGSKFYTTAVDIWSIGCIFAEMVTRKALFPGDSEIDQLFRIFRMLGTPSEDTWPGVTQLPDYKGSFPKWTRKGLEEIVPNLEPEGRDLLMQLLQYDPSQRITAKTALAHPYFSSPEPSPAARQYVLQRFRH
Outline: as §1

EGFR(L858R) = molecular target: T5, EGFR(L858R) (Homo sapiens, UniProt P00533, L858R); test: KINOMEscan; assay type: binding; details: 10000 nM; read-out: Percent Control
T5 construct: purchased DiscoverX KINOMEscan scanEDGE; Eurofins Cerep SafetyScreen87
T5 sequence (P00533 25-1210 L858R): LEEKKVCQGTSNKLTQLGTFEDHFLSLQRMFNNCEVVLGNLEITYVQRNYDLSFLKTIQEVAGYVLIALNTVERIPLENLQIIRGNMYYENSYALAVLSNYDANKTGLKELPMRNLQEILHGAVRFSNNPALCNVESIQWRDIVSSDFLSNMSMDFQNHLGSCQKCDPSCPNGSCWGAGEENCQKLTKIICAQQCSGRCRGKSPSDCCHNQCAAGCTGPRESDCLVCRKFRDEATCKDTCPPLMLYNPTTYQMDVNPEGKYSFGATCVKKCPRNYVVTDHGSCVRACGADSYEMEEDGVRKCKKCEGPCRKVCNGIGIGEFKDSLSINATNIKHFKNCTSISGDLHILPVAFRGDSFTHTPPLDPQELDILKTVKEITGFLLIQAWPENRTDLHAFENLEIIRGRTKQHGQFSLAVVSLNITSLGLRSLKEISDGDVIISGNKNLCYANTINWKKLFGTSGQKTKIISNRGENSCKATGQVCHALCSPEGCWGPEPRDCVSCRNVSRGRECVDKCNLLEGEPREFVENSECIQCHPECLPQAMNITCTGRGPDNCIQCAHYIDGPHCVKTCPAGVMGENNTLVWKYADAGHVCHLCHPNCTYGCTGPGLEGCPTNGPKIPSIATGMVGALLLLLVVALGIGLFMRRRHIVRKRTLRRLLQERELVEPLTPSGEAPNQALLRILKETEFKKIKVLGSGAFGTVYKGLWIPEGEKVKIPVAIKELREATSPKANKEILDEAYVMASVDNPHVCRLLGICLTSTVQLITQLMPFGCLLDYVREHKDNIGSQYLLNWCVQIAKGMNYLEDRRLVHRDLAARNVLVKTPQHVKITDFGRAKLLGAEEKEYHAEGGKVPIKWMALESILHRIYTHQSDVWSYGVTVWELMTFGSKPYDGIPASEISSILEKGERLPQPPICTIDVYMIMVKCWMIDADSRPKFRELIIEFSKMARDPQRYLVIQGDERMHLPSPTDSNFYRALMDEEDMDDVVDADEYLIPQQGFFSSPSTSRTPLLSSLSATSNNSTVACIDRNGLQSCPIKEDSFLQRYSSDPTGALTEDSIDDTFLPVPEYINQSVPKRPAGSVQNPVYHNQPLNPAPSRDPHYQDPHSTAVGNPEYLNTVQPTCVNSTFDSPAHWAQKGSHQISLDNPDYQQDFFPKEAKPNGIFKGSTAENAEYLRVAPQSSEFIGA
Outline: as §1

A53T mice = test: Rotarod test, A53T PD mouse model; assay type: in vivo
Experimental: Stereotaxic injections were performed to deliver the AAV-CMV-A53T virus or PBS (control) into the right SNpc (AP, −3.2 mm; ML, −1.3 mm; DV, −4.0 mm from the bregma) of the mice. The injections were administered at a rate of 0.2 μl/min, with a total volume of 1 μl. The procedure was conducted under general anesthesia induced by 1% isoflurane.
The mice were habituated to the rotarod at speeds of 5, 10, and 15 rpm. Motor coordination and endurance were tested at 20 rpm for a maximum of 3 min. The latency to fall was recorded during the test to evaluate motor deficits associated with PD and the therapeutic effects of KDS12025.

C57BL/6 mice = test: Blood H2O2 measurement after LPS; assay type: in vivo, mouse; details: LPS 6 h + KDS12025 3 mg/kg i.p.
Experimental: C57BL/6 mice were intraperitoneally (i.p.) injected with lipopolysaccharide (LPS) and sacrificed at 2, 6, and 24 h post-injection. Blood was collected from the heart using a syringe pre-treated with 0.5 M EGTA to prevent coagulation. Plasma was separated by centrifuging the collected blood at 1,500 × g for 10 min at 4 °C. H2O2 levels in the plasma were quantified using the Amplex Red assay according to the manufacturer’s instructions. The H2O2 levels peaked at 6 h post-LPS injection. Subsequently, KDS12025 (3 mg/kg/day) was intraperitoneally administered concurrently with LPS at the 6 h time point, and plasma H2O2 levels were measured to assess the effect of the compound.

SOD1^G93A mice = test: Immunohistochemistry of ventral spinal cord, SOD1^G93A mice; assay type: in vivo, mouse; details: SOD1+KDS
Experimental: SOD1^G93A mice (B6SJL-Tg(SOD1*G93A)1Gur/J) were purchased from Jackson Laboratory (strain number 002726) and used in the ALS mouse model. The mice were divided into four groups: Control, SOD1, and KDS12025 (1 and 10 mg/kg/day). Starting at 10 weeks of age, KDS12025 was administered via ad libitum drinking water at doses of 1 mg/kg/day and 10 mg/kg/day. The control and SOD1 groups received standard drinking water. Motor function was evaluated weekly via the rotarod performance test, and the ratio of running time was normalized to that of littermate controls to assess motor coordination and endurance over time. Survival of the mice was monitored for up to 24 weeks, and median survival times were calculated for each group.
The mice were deeply anesthetized with 2% isoflurane and positioned on the operating table. […] A series of fluorescence images were obtained with an LSM900 (Zeiss, Germany) confocal microscope or Lattice SIM Elyra 7 (Zeiss, Germany). […] This analysis quantified the intersections of GFAP-labeled processes within each circle, calculating the ramification index and ending radius, enabling the evaluation of astrocytic hypertrophy and morphological changes, as previously described.[78] In the focal GiD mouse model, NeuN-positive CA1 pyramidal neurons were quantified within a 50 × 50 μm^2 region via ImageJ to determine the number of CA1 pyramidal neurons.

T1 sequence (Q15831 whole entry): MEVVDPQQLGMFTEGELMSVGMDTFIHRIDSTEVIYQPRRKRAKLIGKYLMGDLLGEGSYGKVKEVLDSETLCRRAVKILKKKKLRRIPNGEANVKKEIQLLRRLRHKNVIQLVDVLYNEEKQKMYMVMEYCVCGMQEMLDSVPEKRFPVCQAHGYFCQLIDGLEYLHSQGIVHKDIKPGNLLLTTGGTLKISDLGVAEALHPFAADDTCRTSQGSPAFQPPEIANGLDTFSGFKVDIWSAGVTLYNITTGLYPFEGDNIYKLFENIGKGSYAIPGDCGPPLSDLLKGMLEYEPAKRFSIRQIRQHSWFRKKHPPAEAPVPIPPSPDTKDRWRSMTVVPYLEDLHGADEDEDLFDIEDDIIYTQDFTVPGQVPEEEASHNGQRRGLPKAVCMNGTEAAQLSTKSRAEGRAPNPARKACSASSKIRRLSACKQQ

## CNc1ccc(NCCc2ccccc2OC)cc1.Cl [KDS12025, N^1-(2-methoxyphenethyl)-N^4-methylbenzene-1,4-diamine hydrochloride salt]
LKB1
  remaining binding at 10 µM: 80%
[1]
  remaining binding at 10 µM: 100%
MKNK2
  remaining binding at 10 µM: 95%
CDK3
  remaining binding at 10 µM: 79%
EGFR(L858R)
  remaining binding at 10 µM: 45%
A53T mice; A53T+KDS12025 1 mg/kg/day ad libitum, Fig. 4h
  rotarod latency to fall: Control (225.3±30.6, n=6), A53T (93.8±19.6, n=7), A53T+KDS12025 (223.8±23.5, n=8) One-way ANOVA with Tukey's multiple comparisons test, F(2,18) = 9.52, p = 0.002 Control vs. A53T, p = 0.005; Control vs. A53T+KDS12025, p > 0.99; A53T vs. A53T+KDS12025, p = 0.003
A53T mice; A53T+shHbβ::CaMKII+KDS12025, Fig. 6q
  rotarod latency to fall: 139.0±51.1
A53T mice; A53T+shHbβ::GFAP+KDS12025, Fig. 6q
  rotarod latency to fall: 117.0±63.6
C57BL/6 mice
  plasma H2O2 level (Fig. S20r): Control (0.3325±0.02161, n=6), LPS-6hrs (1.295±0.05323, n=6), LPS-6hrs+KDS (0.7847±0.08078, n=6) One-way ANOVA with Tukey's multiple comparisons test, F(2,15) = 70.74, p < 0.001 Control vs. LPS-6hrs, p < 0.001; Control vs. LPS-6hrs+KDS, p < 0.001; LPS-6hrs vs. LPS-6hrs+KDS, p < 0.001
SOD1^G93A mice; Fig. S15b
  Hbβ in GFAP-positive astrocytes, ventral spinal cord: Control (2194±76.5, n=25), SOD1 (1209±54.8, n=31), SOD1+KDS (2557±108.6, n=37) One-way ANOVA with Tukey's multiple comparisons test, F(2,90) = 65.01, p < 0.001 Control vs. SOD1, p < 0.001; Control vs. SOD1+KDS, p = 0.02; SOD1 vs. SOD1+KDS, p < 0.001
SOD1^G93A mice; Fig. S15d
  Hbβ in NeuN-positive neurons, ventral spinal cord: Control (1961±96.1, n=22), SOD1 (1183±89.9, n=19), SOD1+KDS (2326±85.3, n=17) One-way ANOVA with Tukey's multiple comparisons test, F(2,55) = 38.14, p < 0.001 Control vs. SOD1, p < 0.001; Control vs. SOD1+KDS, p = 0.02; SOD1 vs. SOD1+KDS, p < 0.001
